How the values were obtained:
[1] = tested on: α1 receptors; assay: Anti-α1 action: norepinephrine-induced tonic contraction of isolated thoracic aorta; settings: tonic contraction by 10^−5 M norepinephrine taken as 100%, guinea pig thoracic aorta
Procedure: The thoracic aorta of each Hartley male guinea pig (body weight: 300–500 g) was excised. A preparation cut in a helical form was suspended under 1 g load in a Magnus cylinder filled with the Tyrode solution which had been aerated with a gas mixture of 95% O2 and 5% CO2 and maintained at 37° C. Using an isometric transducer (“TB-612J”, manufactured by Nihon Kohden Corporation) and a pressure preamplifier (“AP-620G”, manufactured by Nihon Kohden Corporation), variations in tension were measured. The isometric tensions were recorded on a thermal pen-writing recorder (“WT-647G”, manufactured by Nihon Kohden Corporation). Taking the tonic contraction induced by 10^−5 M norepinephrine (NE) as 100%, the percent contractions upon addition of each test drug at 10^−8 M and 10^−7 M were determined and recorded as α1 action.

[2] = tested on: serotonin-2 receptors; assay: Anti-serotonin (5-HT) action: 5-HT-induced contraction of isolated superior mesenteric artery; settings: contraction by 10^−5 M 5-HT taken as 100%, guinea pig superior mesenteric artery
Procedure: (1) Anti-Serotonin (5-HT) Action
A preparation cut in a helical form was suspended under resting-tension of 0.3 g in a Magnus cylinder filled with the Tyrode solution which had been aerated with a gas mixture of 95% O2 and 5% CO2 and maintained at 37° C. Using an isometric transducer (“UL-10”, manufactured by SHINKOH K. K.) and a pressure preamplifier (“DSA-605A”, manufactured by SHINKOH K. K.), variations in tension were measured. The isometric tensions were recorded on a pen-writing recorder (“VP-6537A”, manufactured by NATIONAL K. K.). Taking the contraction induced by 10^−5 M serotonin (5-HT) as 100%, the percent contractions by 10^−5 M 5-HT in the presence of each test drug at 10^−7 M and 10^−6 M were determined as anti-5-HT action.

| SMILES | Anti α1 action (% of Control) ([1]; test drug 10^−7 M) | Anti α1 action (% of Control) ([1]; test drug 10^−8 M) | Anti 5-HT action (% of Control) ([2]; test drug 10^−6 M) | Anti 5-HT action (% of Control) ([2]; test drug 10^−7 M) |
| --- | --- | --- | --- | --- |
| Cn1ccc2c1C(=NO)CCN(CCCN1CCN(c3ccc(F)cc3)CC1)S2(=O)=O [Compound 27, 2-[3-[4-(4-fluorophenyl)piperazin-1-yl]propyl]-5-hydroxyimino-6-methyl-3,4,5,6-tetrahydro-2H-pyrrolo[2,3-f][1,2]thiazepine 1,1-dioxide] | 53.0 % of Control | 91.2 % of Control | 22.7 % of Control | 76.2 % of Control |
| Cn1ccc2c1C(=NO)CN(CCCN1CCN(c3ccc(F)cc3)CC1)S2(=O)=O [Compound 25, 2-[3-[4-(4-fluorophenyl)piperazin-1-yl]propyl]-4-hydroxyimino-5-methyl-2,3,4,5-tetrahydropyrrolo[2,3-e][1,2]thiazine 1,1-dioxide] | 24.1 % of Control | 65.3 % of Control | 19.6 % of Control | 69.8 % of Control |
| Cn1ccc2c1C(O)CCN(CCCN1CCN(c3ccc(F)cc3)CC1)S2(=O)=O (centres unmarked) [Compound 30, 2-[3-[4-(4-fluorophenyl)piperazin-1-yl]propyl]-5-hydroxy-6-methyl-3,4,5,6-tetrahydro-2H-pyrrolo[2,3-f][1,2]thiazepine 1,1-dioxide] | 88.0 % of Control | 102.3 % of Control | 37.2 % of Control | 83.5 % of Control |
| Cn1ccc2c1C(=NO)CN(CCCN1CCC(C(=O)c3ccc(F)cc3)CC1)S2(=O)=O [Compound 26, 2-[3-[4-(4-fluorobenzoyl)piperidino]propyl]-4-hydroxyimino-5-methyl-2,3,4,5-tetrahydropyrrolo[2,3-e][1,2]thiazine 1,1-dioxide] | 73.1 % of Control | 99.6 % of Control | 18.2 % of Control | 54.6 % of Control |
| Cn1ccc2c1C(=O)CCN(CCCN1CCC(C(=O)c3ccc(F)cc3)CC1)S2(=O)=O [Compound 22, 2-[3-[4-(4-fluorobenzoyl)piperidino]propyl]-6-methyl-3,4,5,6-tetrahydro-2H-pyrrolo[2,3-f][1,2]thiazepin-5-one 1,1-dioxide] | 64.9 % of Control | 91.2 % of Control | 21.3 % of Control | 75.3 % of Control |

— US7057036B2, “Pyrrolothiazine and pyrrolothiazepine compounds having serotonin-2 receptor antagonistic and alpha-1-blocking action” (Daiichi Suntory Pharma Co., Ltd., priority 1997, dated 2006)
